pIC50: −log10 of the molar value. Read-outs that look alike come from different tables or passages of the source.
Tests used:
[1] = system: nNOS; assay: NOS enzyme activity assay (Eurofins), nNOS; assay type: biochemical; settings: C1: 1 nM and 1 μM; 30 min reaction
Method: (§1) In mammalians NO is produced by the three isoforms of NOS: iNOS, eNOS, and nNOS. To evaluate the direct influence of cl on the different isoforms of NOS, an enzyme activity assay was conducted by Eurofins. C1 was mixed with the enzyme buffer, which included co-factors and substrates and by adding the enzyme the reaction was initiated. After 30 min the reaction was stopped, and NO concentration was measured. The results are normalised to positive control performed without any additional compounds and are presented as percentage in inhibition. […] To test the compounds effect on iNOS a concentration range from […] 5 μM were applied ([…], 1, 10, 100 nM, 1, and 5 μM), and for testing eNOS and nNOS 1 nM and 1 μM were applied.

[2] = system: primary cultured neonatal microglia; assay: LPS induced NO release, Griess assay, laboratory scaled setup; assay type: cell-based, mouse; settings: inhibitors of NO production, murine primary cultured neonatal microglia; for pIC50: Mus musculus, Microglia;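 for active: compounds at or above the IC50 cutoff were called inactive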
Method: Primary cultured neonatal microglia. For preparation of cultured neonatal microglia, P0-P3 mice were used. 10 brains were extracted, meninges and cerebellum were removed and put on ice with Hank's balanced salt solution (HBSS). The dissected brains were washed 3 times before adding 400 μL trypsin (0.1 mg/L) and DNAse (5 μg/L) in phosphate buffered saline (PBS). After 2 min of incubation with this solution, the reaction was blocked by adding plain medium. After removal of the medium, 1 mg DNAse was added and the cells were mechanically dissociated, with a Pasteur pipette followed by a glass pipette. The cells were centrifuged for 10 min at 129 g at 4° C. The supernatant was discarded. The pellet was resuspended in plain medium and plated (2.5 brains/flask) in Poly-L-Lysine coated flasks. The cells were washed after 2 days with PBS and incubated for another 7 days in plain medium. Afterwards the medium was replaced by plain medium with 33% L929 conditioned medium. After 2 days, cells were harvested by shaking them for 30 min at 150 rpm. The supernatant was centrifuged for 10 min at 129 g at 4° C. The cells were plated into a 96 well plate (100 000 cells/well, 200 μL medium per well). This procedure could be repeated 2 times with a 2 day interval.
Griess assay. Cells were seeded according to the protocols described above, after compounds and stimuli were added, 100 μl of supernatant was transferred into a new 96 well plate and 100 μl freshly mixed Griess reagent were added. Griess reagent was composed of reagent A (100 mg Naphthylethylene in 50 ml aqua dest.) and reagent B (1 g Sulfanilamide, […] H3PO4 (85%) in 44 mL aqua dest.) mixed 1:1. The solution was carefully mixed and the absorbance was determined in a microplate reader at a wavelength of 550 nm.
Dissolved sodium nitrite in plain medium served as a standard. Total amount of nitrite was calculated by a linear regression of the standard curve.
The activity of the compounds listed in column 1 of Table 1 as inhibitors of NO production was compared in murine primary cultured neonatal microglia as described above.

[3] = system: iNOS; assay: NOS enzyme activity assay (Eurofins), iNOS; assay type: biochemical; settings: C1: 1 μM up to 5 μM as printed; 30 min reaction
Method: as §1

[4] = read-out: activity class (IC50)

CSC(=N)N [S-Methylisothiourea, reference compound]
enzymatic activity of nNOS [1]: reduce the enzyme activity as predicted

COc1ccc(NC(=O)[C@@H](NC(=O)[C@@H]2CCCN2C(=O)OCc2ccccc2)c2ccccc2)cc1 [Compound 17, benzyl (S)-2-(((S)-2-((4-methoxyphenyl)amino)-2-oxo-1-phenylethyl)carbamoyl)pyrrolidine-1-carboxylate]
pIC50 ([2]; read-out: IC50): 6.91
pIC50 [2, 4]: > 6.70
active [2]: YES

COc1ccc(NC(=O)[C@@H](NC(=O)[C@@H]2CCCN2C(=O)CCC2CCCCC2)c2ccc(OC)cc2)cc1 [Compound 6, (S)-1-(3-cyclohexylpropanoyl)-N—((S)-1-(4-methoxyphenyl)-2-((4-methoxyphenyl)amino)-2-oxoethyl)pyrrolidine-2-carboxamide]
pIC50 ([2]; read-out: IC50): 7.69
pIC50 [2, 4]: > 7.30
active [2]: YES

COc1ccc([C@H](NC(=O)[C@@H]2CCCN2C(=O)OCc2ccccc2)C(=O)Nc2cccc3c2ccn3C)cc1 [Compound 41, benzyl (S)-2-(((S)-1-(4-methoxyphenyl)-2-((1-methyl-1H-indol-4-yl)amino)-2-oxoethyl)carbamoyl)pyrrolidine-1-carboxylate]
pIC50 ([2]; read-out: active): ≤ 5.00

COc1ccc(NC(=O)[C@@H](NC(=O)[C@@H]2CCCN2C(C)=O)c2ccc(OC)cc2)cc1 [Compound 47]
pIC50 ([2]; read-out: active): ≤ 5.00

COc1ccc(NC(=O)[C@@H](NC(=O)[C@@H]2CCCN2C(=O)CCc2ccccc2)c2ccc(OC)cc2)cc1 [Compound 13]
pIC50 ([2]; read-out: IC50): 6.82
pIC50 [2, 4]: > 6.70
active [2]: YES

COc1ccc(NC(=O)[C@@H](NC(=O)[C@@H]2CCCN2C(=O)CCC2CCCCC2)c2ccc(OCCOCCOCCOCCOCCOCCNC(=O)CCCC[C@@H]3SC[C@@H]4NC(=O)N[C@@H]43)cc2)cc1 [Compound 8, (S)-1-(3-cyclohexylpropanoyl)-N—((S)-2-((4-methoxyphenyl)amino)-2-oxo-1-(4-((19-oxo-23-((3aS,4S,6aR)-2-oxohexahydro-1H-thieno[3,4-d]imidazol-4-yl)-3,6,9,12,15-pentaoxa-18-azatricosyl)oxy)phenyl)ethyl)pyrrolidine-2-carboxamide]
pIC50 ([2]; read-out: IC50): 8.08
pIC50 [2, 4]: > 7.30
active [2]: YES

COc1ccc(NC(=O)[C@@H](NC(=O)[C@@H]2CCCN2C(=O)CCc2cn(C)c3ccccc23)c2ccc(OC)cc2)cc1 [Compound 21, (S)—N—((S)-1-(4-methoxyphenyl)-2-((4-methoxyphenyl)amino)-2-oxoethyl)-1-(3-(1-methyl-1H-indol-3-yl)propanoyl)pyrrolidine-2-carboxamide]
pIC50 ([2]; read-out: IC50): 6.59
pIC50 [2, 4]: > 6.00
active [2]: YES

COc1ccc(NC(=O)[C@@H](NC(=O)[C@@H]2CCCN2C(=O)COc2ccccc2)c2ccc(OC)cc2)cc1 [Compound 11, (S)—N—((S)-1-(4-methoxyphenyl)-2-((4-methoxyphenyl)amino)-2-oxoethyl)-1-(2-phenoxyacetyl)pyrrolidine-2-carboxamide]
pIC50 ([2]; read-out: IC50): 7.14
pIC50 [2, 4]: > 7.00
active [2]: YES

COc1ccc([C@H](NC(=O)[C@@H]2CCCN2C(=O)OCc2ccccc2)C(=O)Nc2ccc3nncn3c2)cc1 [Compound 48]
pIC50 ([2]; read-out: active): ≤ 5.00

COc1ccc(NC(=O)[C@@H](NC(=O)[C@@H]2Cc3ccccc3CN2C(=O)OCc2ccccc2)c2ccc(OC)cc2)cc1 [Compound 32, benzyl (S)-3-(((S)-1-(4-methoxyphenyl)-2-((4-methoxyphenyl)amino)-2-oxoethyl)carbamoyl)-3,4-dihydroisoquinoline-2(1H)-carboxylate]
pIC50 [2, 4]: > 5.00
active [2]: YES

CC(=N)NCc1cccc(CN)c1 [W1400, reference compound]
enzymatic activity of iNOS [3]: reduce the enzyme activity as predicted

COc1ccc([C@H](NC(=O)[C@@H]2CCCN2C(=O)OCc2ccccc2)C(=O)Nc2ccccc2)cc1 [Compound 43, benzyl (S)-2-(((S)-1-(4-methoxyphenyl)-2-oxo-2-(phenylamino)ethyl)carbamoyl)pyrrolidine-1-carboxylate]
pIC50 ([2]; read-out: active): ≤ 5.00

COc1ccc(NC(=O)[C@@H](NC(=O)[C@@H]2CCCN2C(=O)Cc2ccccc2)c2ccc(OC)cc2)cc1 [Compound 12, (S)—N—((S)-1-(4-methoxyphenyl)-2-((4-methoxyphenyl)amino)-2-oxoethyl)-1-(2-phenylacetyl)pyrrolidine-2-carboxamide]
pIC50 ([2]; read-out: IC50): 7.00
pIC50 [2, 4]: > 7.00
active [2]: YES

COc1ccc(NC(=O)[C@@H](NC(=O)[C@@H]2CCCN2C(=O)CCC(C)C)c2ccc(OC)cc2)cc1 [Compound 20, (S)—N—((S)-1-(4-methoxyphenyl)-2-((4-methoxyphenyl)amino)-2-oxoethyl)-1-(4-methylpentanoyl)pyrrolidine-2-carboxamide]
pIC50 ([2]; read-out: IC50): 6.69
pIC50 [2, 4]: > 6.00
active [2]: YES

COc1ccc(NC(=O)[C@@H](NC(=O)[C@@H]2CCCN2C(=O)CCCC2CCCCC2)c2ccc(OC)cc2)cc1 [Compound 7]
pIC50 ([2]; read-out: IC50): 7.35
pIC50 [2, 4]: > 7.30
active [2]: YES

COc1ccc(NC(=O)[C@@H](NC(=O)[C@@H]2CCCN2C(=O)CC2CCCCC2)c2ccc(OC)cc2)cc1 [Compound 19, (S)-1-(2-cyclohexylacetyl)-N—((S)-1-(4-methoxyphenyl)-2-((4-methoxyphenyl)amino)-2-oxoethyl)pyrrolidine-2-carboxamide]
pIC50 ([2]; read-out: IC50): 6.68
pIC50 [2, 4]: > 6.00
active [2]: YES

COc1ccc(NC(=O)[C@@H](NC(=O)[C@]2(C)CCCN2C(=O)OCc2ccccc2)c2ccc(OC)cc2)cc1 [Compound 33, benzyl (S)-2-(((S)-1-(4-methoxyphenyl)-2-((4-methoxyphenyl)amino)-2-oxoethyl)carbamoyl)-2-methylpyrrolidine-1-carboxylate]
pIC50 [2, 4]: > 6.70
active [2]: YES

COc1ccc(NC(=O)[C@@H](NC(=O)[C@@H]2CCCN2C(=O)OCc2ccccc2)c2ccc(OCCOCCOCCOCCOCCOCCNC(=O)CCCC[C@@H]3SC[C@@H]4NC(=O)N[C@@H]43)cc2)cc1 [Compound 29, benzyl (S)-2-(((S)-2-((4-methoxyphenyl)amino)-2-oxo-1-(4-((19-oxo-23-((3aS,4S,6aR)-2-oxohexahydro-1H-thieno[3,4-d]imidazol-4-yl)-3,6,9,12,15-pentaoxa-18-azatricosyl)oxy)phenyl)ethyl)carbamoyl)pyrrolidine-1-carboxylate]
pIC50 ([2]; read-out: IC50): 5.63
pIC50 [2, 4]: > 5.00
active [2]: YES

COc1ccc(NC(=O)[C@@H](NC(=O)[C@@H]2CCCN2CCCc2ccccc2)c2ccc(OC)cc2)cc1 [Compound 39, (S)—N—((S)-1-(4-methoxyphenyl)-2-((4-methoxyphenyl)amino)-2-oxoethyl)-1-(3-phenylpropyl)pyrrolidine-2-carboxamide]
pIC50 ([2]; read-out: active): ≤ 5.00

COc1ccc([C@H](NC(=O)[C@@H]2CCCN2C(=O)OCc2ccccc2)C(=O)Nc2cnn(C)c2)cc1 [Compound 40, benzyl (S)-2-(((S)-1-(4-methoxyphenyl)-2-((1-methyl-1H-pyrazol-4-yl)amino)-2-oxoethyl)carbamoyl)pyrrolidine-1-carboxylate]
pIC50 ([2]; read-out: active): ≤ 5.00

Source: patent US20240025849A1 (MAX DELBRÜCK-CENTRUM FÜR MOLEKULARE MEDIZIN IN DER …, priority 2020, published 2024)
